Results as given in PMC3809587, “Structure and function of the Smoothened extracellular domain in vertebrate Hedgehog signaling” (eLife, 2013).
“Also recorded” adds a separate entry of the source. Like-named read-outs stand apart in the source and are kept apart here.

Columns and labels:
[1] = system: Hh reporter (8xGli-responsive promoter); conditions: cited from earlier work
[2] = molecular target: T1, mSmo CRD-Fc (Mus musculus, UniProt P56726); assay: Ligand affinity chromatography: mSmo CRD-Fc binding to 20(S)-OHC beads; conditions: free compound added as competitor
T1 construct: made in house; host or cells: 293F suspension cells (secreted)
T1 sequence (P56726 33-183): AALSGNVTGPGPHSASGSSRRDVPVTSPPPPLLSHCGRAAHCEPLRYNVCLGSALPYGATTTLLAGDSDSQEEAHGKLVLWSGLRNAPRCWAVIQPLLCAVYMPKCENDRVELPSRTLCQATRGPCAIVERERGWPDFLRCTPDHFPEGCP
Experimental: After binding was allowed to proceed for 12 hr at 4°C, the resin was washed and captured protein was eluted as described above. The presence of mSmo CRD-Fc was measured by an anti-human HRP-coupled antibody (1:20,000) or anti-human IR800-coupled antibody (1:10,000; for all quantitation, detected by LiCor Odyssey). The presence of zSmo ectodomain protein was measured by colloidal Coomassie staining (GelCode Blue, Pierce/Thermo Scientific). […]

[3] = molecular target: T2, mSmoM2 (Mus musculus, UniProt P56726, W539L); assay: Hh reporter assay in NIH 3T3 cells transfected with mSmoM2; type: cell-based; conditions: 10 µM each, 12 hr
T2 construct: All mSmo mutants were made using Quickchange or PCR methods in the context of a previously described construct encoding full-length mouse Smo (UniProt P56726); expressed in transfected cells; host or cells: NIH 3T3 cells
T2 sequence (P56726 33-793 W539L): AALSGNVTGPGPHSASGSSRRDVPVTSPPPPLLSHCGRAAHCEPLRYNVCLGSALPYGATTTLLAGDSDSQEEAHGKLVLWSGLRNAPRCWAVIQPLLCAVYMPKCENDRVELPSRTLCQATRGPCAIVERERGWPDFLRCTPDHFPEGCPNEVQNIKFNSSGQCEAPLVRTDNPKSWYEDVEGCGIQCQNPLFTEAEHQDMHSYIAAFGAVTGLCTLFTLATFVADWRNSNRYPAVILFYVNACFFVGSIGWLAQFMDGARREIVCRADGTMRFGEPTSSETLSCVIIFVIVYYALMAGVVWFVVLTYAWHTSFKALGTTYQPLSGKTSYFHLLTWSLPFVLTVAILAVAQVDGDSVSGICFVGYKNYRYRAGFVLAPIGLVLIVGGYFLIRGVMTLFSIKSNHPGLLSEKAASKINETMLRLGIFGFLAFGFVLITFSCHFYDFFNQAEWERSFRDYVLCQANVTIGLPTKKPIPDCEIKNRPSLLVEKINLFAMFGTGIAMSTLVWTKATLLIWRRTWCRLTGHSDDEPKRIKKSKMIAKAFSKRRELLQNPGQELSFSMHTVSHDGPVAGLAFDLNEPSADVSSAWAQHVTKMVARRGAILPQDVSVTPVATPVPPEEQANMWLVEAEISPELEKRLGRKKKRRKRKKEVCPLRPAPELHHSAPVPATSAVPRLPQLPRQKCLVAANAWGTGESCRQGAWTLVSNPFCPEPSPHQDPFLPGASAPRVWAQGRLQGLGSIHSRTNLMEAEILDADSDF
Experimental: (§1) For reporter assays in NIH 3T3 cells, a 10-cm plate of cells was transfected with 8 μg of a 4:1 wt/wt ratio of firefly luciferase reporter driven by an 8xGli-responsive promoter ([Sasaki et al., 1997]) and a Renilla luciferase reporter driven by a constitutive TK promoter (Promega, Madison, WI). The next day, transfected cells were seeded into a 96-well plate, grown to confluence, and treated overnight with drugs diluted in media containing 0.5% fetal bovine serum (FBS). For reporter assays in Smo^−/− cells, 25,000 cells per well were seeded in a 24-well plate 24 hr prior to transfection. The next day, after a media replacement step, each well was transfected with 1 ng Smo construct and 500 ng of the reporter mix described above, using Xtreme Gene HP (Roche, Mannheim, Germany). After overnight transfection, the media were once again changed to fresh media. Cells were grown to confluence and treated with drugs diluted in media with 0.5% FBS for 48 hr. Activity of both reporters was measured using the Dual-Luciferase Reporter kit (Promega) and read on a Synergy H1 Hybrid Multi-Mode Microplate Reader (BioTek, Winooski, VT). The Gli luciferase to Renilla luciferase ratio is reported as ‘Hedgehog reporter activity’. Each experiment, which included three technical replicates, was repeated at least three times.

[4] = system: Hh reporter (8xGli-responsive promoter); assay: Luciferase-based Hh reporter assay; type: cell-based, mouse; conditions: in the absence of Shh
Experimental: For reporter assays in NIH 3T3 cells, a 10-cm plate of cells was transfected with 8 μg of a 4:1 wt/wt ratio of firefly luciferase reporter driven by an 8xGli-responsive promoter ([Sasaki et al., 1997]) and a Renilla luciferase reporter driven by a constitutive TK promoter (Promega, Madison, WI). The next day, transfected cells were seeded into a 96-well plate, grown to confluence, and treated overnight with drugs diluted in media containing 0.5% fetal bovine serum (FBS). For reporter assays in Smo^−/− cells, 25,000 cells per well were seeded in a 24-well plate 24 hr prior to transfection. […] Activity of both reporters was measured using the Dual-Luciferase Reporter kit (Promega) and read on a Synergy H1 Hybrid Multi-Mode Microplate Reader (BioTek, Winooski, VT). […]
For Hh reporter assays, each point is reported as the mean ± standard deviation (SD) derived from triplicates. […] Relative luciferase activity was calculated by dividing Gli luciferase by Renilla luciferase luminescence. Fold-change in reporter activity was calculated by dividing each replicate by the mean reporter activity of the vehicle-treated control. Normalized (% of max) Hh reporter activity was calculated by setting the maximum value of a set to 100% and zero to 0% using the ‘normalize’ function of GraphPad Prism. […]

[5] = molecular target: T3, full-length mSmo (Mus musculus, UniProt P56726); assay: Bodipy-cyclopamine binding to Smo-expressing cells by FACS
T3 construct: expressed in transfected cells
T3 sequence (P56726 33-793): as the sequence (P56726 33-793 W539L) above, with L507W counted along it

[6] = molecular target: T4, mSmo D477H (Mus musculus, UniProt P56726, D477H); assay: Hh reporter assay in Smo−/− cells transfected with mSmo D477H; type: cell-based; conditions: Shh, 25 µM, 48 hr
T4 construct: All mSmo mutants were made using Quickchange or PCR methods in the context of a previously described construct encoding full-length mouse Smo (UniProt P56726); expressed in transfected cells; host or cells: Smo-/- mouse embryonic fibroblasts (transient)
T4 sequence (P56726 33-793 D477H): as the sequence (P56726 33-793 W539L) above, with D445H, L507W counted along it
Experimental: as §1

[7] = system: Smo; conditions: ref Wang et al., 2012; cited from earlier work
[8] = molecular target: T5, ΔCRD-YFP-mSmo (Mus musculus, UniProt P56726, DEL68-184); assay: Hh signaling by ΔCRD-YFP-mSmo in Smo−/− cells (immunoblot, Hh reporter); type: cell-based; conditions: SAG 100 nM, 20(S)-OHC 10 μM
T5 construct: All mSmo mutants were made using Quickchange or PCR methods in the context of a previously described construct encoding full-length mouse Smo (UniProt P56726); expressed in transfected cells
T5 sequence (P56726 with tags, fused parts or gaps DEL68-184): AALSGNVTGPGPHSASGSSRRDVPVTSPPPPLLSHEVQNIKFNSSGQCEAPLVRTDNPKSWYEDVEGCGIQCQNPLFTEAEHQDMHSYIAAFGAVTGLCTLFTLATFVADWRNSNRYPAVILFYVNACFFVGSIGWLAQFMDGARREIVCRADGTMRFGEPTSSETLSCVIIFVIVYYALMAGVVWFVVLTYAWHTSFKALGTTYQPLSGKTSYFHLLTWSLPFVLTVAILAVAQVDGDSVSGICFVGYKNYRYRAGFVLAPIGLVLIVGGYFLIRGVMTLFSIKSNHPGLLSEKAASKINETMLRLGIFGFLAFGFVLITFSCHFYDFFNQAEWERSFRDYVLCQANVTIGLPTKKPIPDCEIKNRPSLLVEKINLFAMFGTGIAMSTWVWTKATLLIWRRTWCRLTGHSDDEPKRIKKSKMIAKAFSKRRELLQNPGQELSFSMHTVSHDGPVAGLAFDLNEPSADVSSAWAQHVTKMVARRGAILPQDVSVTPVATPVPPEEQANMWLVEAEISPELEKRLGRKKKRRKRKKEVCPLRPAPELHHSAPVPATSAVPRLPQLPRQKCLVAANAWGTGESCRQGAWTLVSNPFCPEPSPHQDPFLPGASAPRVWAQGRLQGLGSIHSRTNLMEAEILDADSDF

[9] = molecular target: T6, YFP-mSmo (Mus musculus, UniProt P56726); assay: Gli1 and Gli3R immunoblot in Smo−/−:YFP-mSmo cells; type: cell-based; conditions: SAG 100 nM, 20(S)-OHC 10 μM
T6 construct: Smo^−/− cells stably expressing full-length (FL) YFP-mSmo or ΔCRD-YFP-mSmo were treated with Shh, SAG (100 nM) or 20(S)-OHC (10 μM); expressed in transfected cells
T6 sequence (P56726 33-793): as the sequence (P56726 33-793 W539L) above, with L507W counted along it
Experimental: Cultured cells stably expressing YFP-mSmo, ΔCRD-YFP-mSmo, or ΔC-YFP-mSmo were scraped into ice-cold PBS containing SigmaFast Protease inhibitor cocktail (Sigma) and collected as a pellet by centrifugation (1000×g, 10 min, 4°C). Cells were lysed (1 hr, 4°C) by agitation in modified RIPA buffer (50 mM sodium-Tris pH 7.4, 150 mM sodium chloride, 2% NP-40, 0.5% deoxycholate, 0.1% sodium-dodecyl sulfate [SDS], 1 mM dithiothreitol and the SigmaFast Protease inhibitor cocktail). After clarification (20,000×g, 45 min, 4°C), the protein concentration of each lysate was measured using the bicinchoninic acid assay (BCA, Pierce/Thermo Scientific, Rockford, IL). Lysate aliquots containing equal amount of total protein were fractionated on an 8% SDS-PAGE gel and transferred to a nitrocellulose membrane for immunoblotting with anti-Gli1 antibody (#L42B10, 1:500; Cell Signaling, Denvers, MA), anti-GFP antibody (1:5000; Novus, Littleton, CO), anti-Gli3 antibody (AF3690 1:200; R&D, Minneapolis, MN) and anti-p38 antibody (ab31828, 1:2000; Abcam, Cambridge, MA). In Figures 1–4, vertical dashed black lines represent non-contiguous lanes from the same immunoblot juxtaposed for clarity.

[10] = system: endogenous mSmo in cilia of NIH 3T3 cells; parameters: method as in Rohatgi et al., 2009; conditions: ref Rohatgi et al., 2009; cited from earlier work

CC(C)CCC[C@@](C)(O)[C@H]1CC[C@H]2[C@@H]3CC=C4C[C@@H](O)CC[C@]4(C)[C@H]3CC[C@@]21C [20(R)-OHC]
activation of Hh signaling ([1]; ref Nachtergaele et al., 2012): cannot activate Hh signaling
inhibition of binding of mSmo CRD-Fc to 20(S)-OHC beads [2]: unable to inhibit binding; also recorded: failed to inhibit

C#CCC[C@](C)(O)[C@H]1CC[C@H]2[C@@H]3CC=C4C[C@@H](O)CC[C@]4(C)[C@H]3CC[C@@]21C [20(S)-yne]
potency relative to 20(S)-OHC ([1]; Hh-activation potency, ref Nachtergaele et al., 2012): ~10 fold
inhibition of binding of mSmo CRD-Fc to 20(S)-OHC beads [2]: Binding could be inhibited

CC(C)CCCC(=O)[C@H]1CC[C@H]2[C@@H]3CC=C4C[C@@H](O)CC[C@]4(C)[C@H]3CC[C@]12C [20-keto-cholesterol]
inhibition of binding of mSmo CRD-Fc to 20(S)-OHC beads [2]: failed to inhibit

C#CCCC(=O)[C@H]1CC[C@H]2[C@@H]3CC=C4C[C@@H](O)CC[C@]4(C)[C@H]3CC[C@]12C [20-keto-yne, (3β, 17β)-17-(1-oxopent-4-yn-1-yl)-androst-5-en-3-ol]
signaling by mSmoM2 [3]: reduced signaling
activation of Hh signaling [4]: weak activators of signaling
inhibition of binding of mSmo CRD-Fc to 20(S)-OHC beads [2]: blocked the binding
competition of bodipy-cyclopamine binding [5]: did not affect the binding
signaling by mSmo D477H [6]: reduced signaling

CC(C)CC[C@H](O)[C@@H](C)[C@H]1CC[C@H]2[C@@H]3CC=C4C[C@@H](O)CC[C@]4(C)[C@H]3CC[C@]12C [22(S)-OHC]
activation of Hh signaling ([1]; ref Nachtergaele et al., 2012): cannot activate Hh signaling
inhibition of binding of mSmo CRD-Fc to 20(S)-OHC beads [2]: unable to inhibit binding

CC(C)CCN[C@@H](C)[C@H]1CC[C@H]2[C@@H]3CC=C4C[C@@H](O)CC[C@]4(C)[C@H]3CC[C@]12C [22-azacholesterol]
block of signaling induced by SAG or by mSmoM2 ([1]; ref Nedelcu et al., 2013): does not block signaling induced by SAG or by mSmoM2

CCCC1O[C@@H]2C[C@H]3[C@@H]4CCC5=CC(=O)C=C[C@]5(C)[C@H]4[C@@H](O)C[C@]3(C)[C@]2(C(=O)CO)O1 (stereo partly shown) [Budesonide]
competition with cyclopamine for binding to Smo [7]: fail to compete with cyclopamine for binding to Smo

CC(C)C(=O)OCC(=O)[C@@]12O[C@H](C3CCCCC3)O[C@@H]1C[C@H]1[C@@H]3CCC4=CC(=O)C=C[C@]4(C)[C@H]3[C@@H](O)C[C@@]12C [Ciclesonide]
competition with cyclopamine for binding to Smo [7]: fail to compete with cyclopamine for binding to Smo

CCC(C)n1ncn(-c2ccc(N3CCN(c4ccc(OCC5COC(Cn6cncn6)(c6ccc(Cl)cc6Cl)O5)cc4)CC3)cc2)c1=O (stereo not shown) [Itraconazole]
inhibition of binding of mSmo CRD-Fc to 20(S)-OHC beads [2]: failed to inhibit the binding

CNC1CCC(N(Cc2cccc(-c3ccncc3)c2)C(=O)c2sc3ccccc3c2Cl)CC1 (stereo not shown) [SAG]
response of ΔCRD-YFP-mSmo to agonist (Hh target genes, Gli3R) [8]: retained its ability to respond to SAG
inhibition of binding of mSmo CRD-Fc to 20(S)-OHC beads [2]: failed to inhibit the binding
Gli3R level [9]: loss of the repressor form of Gli3 (Gli3R) was observed
activation of Hh target gene Gli1 [9]: could activate a Hh target gene, Gli1

Cc1nn(-c2ccccc2)c(C)c1/C=N/N1CCN(Cc2ccccc2)CC1 [SANT-1]
Shh-induced Smo accumulation in cilia [10]: prevent Shh-induced Smo accumulation in cilia
inhibition of binding of mSmo CRD-Fc to 20(S)-OHC beads [2]: failed to inhibit the binding
competition of bodipy-cyclopamine binding [5]: can be competed

CS(=O)(=O)c1ccc(C(=O)Nc2ccc(Cl)c(-c3ccccn3)c2)c(Cl)c1 [Vismodegib]
Shh-induced Smo accumulation in cilia [10]: prevent Shh-induced Smo accumulation in cilia

CC(C)CCC[C@@](C)(O)[C@@H]1CC[C@@H]2[C@H]3CC=C4C[C@H](O)CC[C@@]4(C)[C@@H]3CC[C@]21C [ent-20(S)-OHC]
activation of Hh signaling ([1]; ref Nachtergaele et al., 2012): cannot activate Hh signaling
inhibition of binding of mSmo CRD-Fc to 20(S)-OHC beads [2]: unable to inhibit binding

(3β, 17β)-17-[(2R)-2-hydroxy-hex-4-yn-2-yl]-androst-5-en-3-ol [20(R)-yne]
signaling by mSmoM2 [3]: reduced signaling
activation of Hh signaling [4]: weak activators of signaling
inhibition of binding of mSmo CRD-Fc to 20(S)-OHC beads [2]: blocked the binding
competition of bodipy-cyclopamine binding [5]: did not affect the binding
signaling by mSmo D477H [6]: reduced signaling
